Here are results for 13 compounds from PMC9911797, “Novel TLR7/8 agonists promote activation of HIV-1 latent reservoirs and human T and NK cells” (Frontiers in Microbiology, 2023).

One data set deals with T1, hTLR7 (Homo sapiens, UniProt Q9NYK1).
T1 construct: host or cells: HEK-Blue hTLR7 (HEK293-derived)
T1 sequence (Q9NYK1 27-1049): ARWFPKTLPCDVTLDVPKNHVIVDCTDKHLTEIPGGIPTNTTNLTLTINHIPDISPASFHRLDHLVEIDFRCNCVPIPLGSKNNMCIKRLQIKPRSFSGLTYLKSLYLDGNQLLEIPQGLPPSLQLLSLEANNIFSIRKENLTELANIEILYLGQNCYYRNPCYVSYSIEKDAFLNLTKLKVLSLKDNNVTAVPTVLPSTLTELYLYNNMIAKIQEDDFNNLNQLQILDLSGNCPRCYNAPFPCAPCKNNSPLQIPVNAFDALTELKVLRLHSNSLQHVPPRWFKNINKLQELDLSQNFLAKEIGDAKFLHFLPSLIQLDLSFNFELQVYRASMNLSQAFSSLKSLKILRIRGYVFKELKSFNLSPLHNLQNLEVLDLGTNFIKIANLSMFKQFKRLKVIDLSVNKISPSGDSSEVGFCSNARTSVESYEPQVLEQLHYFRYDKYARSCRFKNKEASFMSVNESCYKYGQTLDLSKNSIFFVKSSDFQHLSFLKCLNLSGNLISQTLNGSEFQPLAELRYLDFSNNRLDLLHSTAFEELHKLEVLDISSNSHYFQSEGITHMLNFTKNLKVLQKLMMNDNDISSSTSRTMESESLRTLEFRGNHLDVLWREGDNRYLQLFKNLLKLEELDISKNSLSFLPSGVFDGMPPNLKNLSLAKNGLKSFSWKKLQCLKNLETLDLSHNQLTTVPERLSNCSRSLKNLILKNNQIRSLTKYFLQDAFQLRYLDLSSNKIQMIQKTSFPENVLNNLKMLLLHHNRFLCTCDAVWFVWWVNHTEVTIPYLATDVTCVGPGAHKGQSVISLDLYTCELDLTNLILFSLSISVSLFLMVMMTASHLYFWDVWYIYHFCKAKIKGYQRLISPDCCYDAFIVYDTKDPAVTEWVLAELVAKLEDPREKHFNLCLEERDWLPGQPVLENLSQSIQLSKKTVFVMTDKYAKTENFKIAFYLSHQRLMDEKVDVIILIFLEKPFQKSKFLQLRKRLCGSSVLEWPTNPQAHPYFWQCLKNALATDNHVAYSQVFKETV
The data set is described as follows: HEK-Blue hTLR7 SEAP reporter assay. The format is cell-based. The settings on record: HEK-Blue hTLR7 cells, SEAP in supernatant. How it is done: (§1) Starting with the lead compound, 76 pyrido [3,2-d] pyrimidine derivatives were synthesized and optimized through structural modification from the deep hydrophobic region to the solvent-exposed region. Seventy-six compounds were evaluated for their in vitro activity using HEK-Blue hTLR7 or hTLR8 reporter cells, stably expressing the human TLR7 or TLR8 and an NF-κB/AP1-inducible SEAP (secreted embryonic alkaline phosphatase reporter gene).
(§2) Add 20 μl various concentrations of TLR agonists (10 dilutions) and in a 96-well plate. Then HEK-Blue hTLR7 and hTLR8 cells were suspended to 4 × 10^5 cells/ml in HEK-Blue Detection (InvivoGen) medium and added 180 μl per well. The plates were incubated at 37°C in 5% CO2 for 12 ~ 16 h. Stimulation with a hTLR7or hTLR8 ligand activates NF-κB to induce the production of secreted embryonic alkaline phosphatase (SEAP) in the culture supernatant. SEAP could be measured at OD630nm on an ELISA plate reader.
A general note: Reporter assays use an easily measured gene product as a stand-in for the process of interest.

The next data set addresses T2, hTLR8 (Homo sapiens, UniProt Q9NR97).
T2 construct: host or cells: HEK-Blue hTLR8 (HEK293-derived)
T2 sequence (Q9NR97 27-1041): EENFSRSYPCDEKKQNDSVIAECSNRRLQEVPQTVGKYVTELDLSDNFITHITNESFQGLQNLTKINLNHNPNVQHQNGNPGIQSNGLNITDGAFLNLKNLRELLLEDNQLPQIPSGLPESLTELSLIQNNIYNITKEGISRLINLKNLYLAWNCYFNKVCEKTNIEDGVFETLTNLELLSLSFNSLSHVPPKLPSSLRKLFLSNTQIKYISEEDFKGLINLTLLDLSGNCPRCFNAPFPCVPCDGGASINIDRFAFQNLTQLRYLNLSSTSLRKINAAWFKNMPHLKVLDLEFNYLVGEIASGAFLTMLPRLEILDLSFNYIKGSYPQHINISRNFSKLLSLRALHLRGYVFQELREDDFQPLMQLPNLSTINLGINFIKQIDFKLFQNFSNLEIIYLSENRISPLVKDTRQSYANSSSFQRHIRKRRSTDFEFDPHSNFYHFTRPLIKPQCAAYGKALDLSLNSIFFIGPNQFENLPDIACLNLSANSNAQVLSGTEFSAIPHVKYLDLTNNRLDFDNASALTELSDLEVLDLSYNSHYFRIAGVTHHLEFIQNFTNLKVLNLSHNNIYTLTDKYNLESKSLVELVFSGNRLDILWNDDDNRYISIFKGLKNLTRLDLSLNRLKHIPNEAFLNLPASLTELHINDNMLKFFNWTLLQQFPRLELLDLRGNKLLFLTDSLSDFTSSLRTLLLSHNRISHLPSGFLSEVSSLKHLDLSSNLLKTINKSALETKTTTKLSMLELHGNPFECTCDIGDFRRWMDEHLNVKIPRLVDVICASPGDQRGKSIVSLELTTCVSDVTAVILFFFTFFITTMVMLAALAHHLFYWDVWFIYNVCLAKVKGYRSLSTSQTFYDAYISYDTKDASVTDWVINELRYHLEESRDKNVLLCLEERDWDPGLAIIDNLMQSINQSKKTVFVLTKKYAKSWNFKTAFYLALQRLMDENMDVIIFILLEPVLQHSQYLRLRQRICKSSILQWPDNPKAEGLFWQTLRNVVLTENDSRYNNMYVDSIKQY
The data set is described as follows: HEK-Blue hTLR8 SEAP reporter assay. The format is cell-based. The settings on record: HEK-Blue hTLR8 cells, SEAP in supernatant. On the procedure: as §1, §2

A further data set deals with NF-κB p65 in U1 cells. The data set is described as follows: Nuclear phospho-p65-S536 in U1 cells (western blot). The settings on record: 1 μM, 30 min, 37°C. A general note: A western blot detects proteins with antibodies after separation by electrophoresis.
In data set [1] the test system is PBMCs from HIV-1 well-suppressed patients. The data set is described as follows: Latent HIV-1 activation in PBMCs of well-suppressed patients (HIV-1 RNA copies in supernatant, RT-qPCR). The format is cell-based, human. The conditions noted are these: for HIV-1 RNA copies in the supernatant and TNF-α concentration: PBMCs from seven well-suppressed patients, IgG1-control antibody vs anti-TNF-α; for HIV-1 RNA copies in the supernatant: patient PBMCs (n = 6), 96 h at 37°C. The text has this:
To study the potential of novel TLR7/8 in activating latent HIV-1 reservoir, TLR7/8 dual agonists D018 and C142 and TLR8-specific agonist B-130a were mixed with PBMCs from six well-suppressed patients whose viral load in the plasma was less than 50 copies/ml, and CD4 counts were more than […] for more than 6 years.
TLR7/8 agonists activated PBMCs from seven well-suppressed patients with the addition of anti-TNF-α monoclonal antibody or IgG1-control monoclonal antibody, respectively. D018, B-130a, and the positive control PMA + ION increased the levels of HIV-1 RNA copies in the supernatant and the concentration of TNF-α concomitantly.
To measure the HIV viral load, viral RNA from supernatants was extracted by MagaBio Plus Viral DNA / RNA Purification Kit (BIOER). The reverse-transcription and analysis of RNA copies were performed using the HIV-1 Real-time PCR detection kit (BIOER).
A general note: Quantitative PCR measures a nucleic acid by following its amplification.

The subject of data set [2] is J-LAT cells co-cultured with MDDCs. Description: J-LAT and MDDC co-culture assay (GFP+ cells and TNF-α). The settings on record: 1 μM, 48 h.
Another data set deals with PBMCs. Description: Inflammatory cytokine release from PBMCs (Legend-plex). The settings on record: PBMC culture supernatant 48 h after stimulation. The format is cell-based, human. How it is done: Then, a total of 13 human inflammatory cytokines and chemokines (IL-1β, IFN-α2, IFN-γ, TNF-α, CCL2, IL-6, CXCL8, IL-10, IL-12p70, IL-17A, IL-18, IL-23, and IL-33) were measured in the culture supernatant 48 h after stimulation and compared with two healthy donors. Only 8 out of 13 became detectable and largely fell into the proinflammatory cytokines (IL-1β, IL-6, IL-18, IL-23, and TNF-α), Th1-and Th2-type cytokines (IL-10 and IFN-γ), and type I (IFN-α2) and type II (IFN-γ) interferons (Figures 2B–I).
The supernatants from PBMCs culture were collected and stored at-20°C until analysis. For the Multi-cytokines assay, the Legend-plex Human Inflammation Panel 1 kit (Biolegend) was used according to the manual. Thirteen human inflammatory cytokines/chemokines were measured, including IL-1β, IFN-α2, IFN-γ, TNF-α, MCP-1 (CCL2), IL-6, IL-8 (CXCL8), IL-10, IL-12p70, IL-17A, IL-18, IL-23, and IL-33.

Data set [3] concerns U1 monocytic cell line (latent HIV-1). The data set is described as follows: HIV-1 p24 production in latently infected U1 cells (ELISA). The settings on record: 1 μM, TLR8- or MyD88-shRNA U1 vs sham-knockdown.
For data set [4], the system named is J-LAT CD4 T cell line (latent HIV-1). Description: J-LAT activation by supernatant of agonist-stimulated healthy donor PBMCs (GFP+ cells, FACS). The conditions noted are these: 48 h, highest concentration 16 μM.
A further data set relates to HIV-1. The arrangement: method as in SenGupta et al., 2021. The conditions noted are these: patients treated with oral GS9620, phase 1b, placebo 4.1 weeks; ref SenGupta et al., 2021; cited from earlier work.
The subject of data set [5] is J-LAT CD4 T cell line (latent HIV-1). Description: Direct stimulation of J-LAT cells (GFP-positive cells).

Protocol for NF-κB p65 in U1 cells: For measuring NF-kB p65 and phosphor-p65 S536, 5 × 10^6 U1 cells were stimulated by 1 μM TLR7/8 agonists D018 (7/8), B-130a (8), GS9620 (7), and DMSO (negative control) for 30 min. Nuclear proteins were extracted by NE-PER Nuclear and Cytoplasmic Extraction Reagents (Pierce) and measured the concentration using BCA protein measure kit (Thermo).
Equal amounts of extracts were loaded on the 10% polyacrylamide gel SDS-PAGE. Then proteins were electro-transferred to nitrocellulose membranes 300 mA for 90 min and incubated with blocking buffer (5% nonfat dry milk and 0.1% Tween 20 in TBS) for 1 h at room temperature. NF-kB p65, phosphorylate p65-s529, and PCNA (as the control of nuclear protein) were separately detected by NF-κB p65 Mouse mAb (CST), Phospho-NF-κB p65 Ser536 Rabbit mAb (CST) and PCNA Rabbit mAb (CST) in blocking buffer overnight at 4°C. After washing 5 times in TBST (1 × TBS + 0.1% Tween), the membranes were incubated with anti-mouse IgG (H + L) HRP (Promega) and anti-rabbit IgG (H + L) HRP (Promega) for 1 h at room temperature. After washing 5 times in TBST, membranes were incubated with ECL detection reagents (Bio-red) and then developed in Bio-red imager.

As a reminder, the EC50 is the concentration giving half of the maximal effect. A lower EC50 goes with a more potent agent. `COCCNc1nc(N)nc2ccc(Cc3ccc(CN(C)C)cc3)nc12` [199-1]: the values for the concentration for a half-maximal effect (EC50) at hTLR7 and at hTLR8 were 117 nM and 9.69 nM, respectively.
`CCCCCc1cc(Cc2ccc(CN(C)C)cc2)c(C)nc1N` [B-130a]: the “nuclear phos-p65-S536” value in the data set with NF-κB p65 in U1 cells was “significant increase”. Also, in data set [1], the “HIV-1 RNA copies in the supernatant and TNF-α concentration” value is on record as “increased”; the “HIV-1 RNA copies in the supernatant” value was “activated detectable levels of HIV-1 RNA copies”. The compound also came in with an EC50 on hTLR7 of over 10000 nM. In data set [2], the “GFP+ J-LAT cells and soluble TNF-α in MDDC co-culture” value is “marked increase”. The same compound had an EC50 on hTLR8 of 55.2 nM. Besides, in the data set on PBMCs, the “release of inflammatory cytokines” value is “comparable potency but were invariably higher than TLR7-specific GS9620”. The “p24 production after TLR8 or MyD88 knockdown” value in data set [3] is listed as “essentially abolished the p24 production”.
For the compound `CCCCCc1cc(Cc2ccc(CN3CCCC3)cc2)c(C)nc1N` [B-130b], the EC50 on hTLR7 is over 10000 nM; on hTLR8, 67.2 nM.
Taken in the same sequence, the figures for `CCCCNc1nc(N)nc2ccc(Cc3ccc(CN4CCCC4)cc3)nc12` [C008] were 101 nM and 17.3 nM.
Regarding `CCCCNc1nc(N)nc2ccc(Cc3ccc(CN(C)C)cc3OC)nc12` [C142], the “HIV-1 RNA copies in the supernatant” value in data set [1] is listed as “activated detectable levels of HIV-1 RNA copies”. Further, the EC50 at hTLR7 stood at 20 nM; on hTLR8, 44.1 nM. Further, the “release of inflammatory cytokines” value in the data set with PBMCs is “either equivalent (IL-6, IL-10, IL-23, and IFN-γ) or higher (IL-1β, IL-18, and TNF-α) than the commercially available R848”.
In the case of `CCCCNc1nc(N)nc2ccc(C(C)c3ccc(CN(C)C)cc3)nc12` (stereo not shown) [C163], the EC50 at hTLR7 was 1650 nM; at hTLR8, 178 nM.
Consider `CCCCOc1nc(N)c2c(n1)N(Cc1cccc(CN3CCCC3)c1)CC(=O)N2` [GS9620, reference compound], for which the “HIV-1 RNA copies in the supernatant and TNF-α concentration” value in [1] is reported as “low detectable levels”. The “GFP-positive J-LAT cells, PBMC supernatant” value in data set [4] is listed as “did not show any detectable effect”. Also, the EC50 was 353 nM at hTLR7 and over 10000 nM on hTLR8. Moreover, the “GFP+ J-LAT cells and soluble TNF-α in MDDC co-culture” value in data set [2] is “no detectable levels”. In addition, the viral rebound time in the data set with HIV-1 is 5.1 weeks.
For the compound `CCCCNc1nc(N)nc2ccc(Cl)nc12` [LB06], the EC50 on hTLR7 stood at 2600 nM; on hTLR8 it was 2000 nM.
Turning to `CCCN(CCC)C(=O)C1=Cc2ccc(-c3ccc(C(=O)N4CCCC4)cc3)cc2N=C(N)C1` [VTX-2337, reference compound], the EC50 at hTLR7 was over 10000 nM; on hTLR8 it was 151 nM. For the same compound, the “release of inflammatory cytokines” value in the data set on PBMCs was “comparable potency but were invariably higher than TLR7-specific GS9620”.
For the compound `CCCCNc1nc(N)nc2ccc(Cc3ccc(CN4CCOCC4)cc3)nc12` [WA86], the EC50 on hTLR7 was found to be 118 nM; at hTLR8, 51 nM.
Taken in the same sequence, the figures for `CCCCCc1cc2nc(Cc3ccc(CN(C)C)cc3)ccc2nc1N` [WA175] were over 10000 nM and 197 nM.
For IFN-α, in data set [5], the “GFP-positive J-LAT cells, direct stimulation” value is “failed to activate J-LAT cells”.
Regarding TNF-α, the “GFP-positive J-LAT cells, direct stimulation” value in data set [5] is “could activate GFP expression”.
